pIC50: −log10 of the molar value.
Molecular target: endogenous, cell-bound CD73 on SK-MEL-28 cells (Homo sapiens (Human), UniProt P21589)
Assay: Inhibition of endogenous, cell-bound CD73 enzyme activity in SK-MEL-28 cells (Malachite Green)
Format: cell-based
Details: 100 μM AMP, 30 minutes at room temperature
Description: The day before the experiment, 5000 cells were plated per well in a 96-well plate. Cells were washed twice with […] reaction buffer (20 mM HEPES, pH 7.4, 125 mM NaCl, 1 mM KCl, 2 mM MgCl2, 10 mM glucose) to remove residual inorganic phosphate. After washing, assays contained serial dilutions of test compounds and 100 μM of AMP in a total volume of 200 μL reaction buffer, with a final DMSO concentration≤0.5%. After 30 minutes at room temperature, supernatant was removed from the cells. […] The concentration of inorganic phosphate was determined using a phosphate standard curve to determine IC50.

Sequence of endogenous, cell-bound CD73 on SK-MEL-28 cells (P21589 27-574): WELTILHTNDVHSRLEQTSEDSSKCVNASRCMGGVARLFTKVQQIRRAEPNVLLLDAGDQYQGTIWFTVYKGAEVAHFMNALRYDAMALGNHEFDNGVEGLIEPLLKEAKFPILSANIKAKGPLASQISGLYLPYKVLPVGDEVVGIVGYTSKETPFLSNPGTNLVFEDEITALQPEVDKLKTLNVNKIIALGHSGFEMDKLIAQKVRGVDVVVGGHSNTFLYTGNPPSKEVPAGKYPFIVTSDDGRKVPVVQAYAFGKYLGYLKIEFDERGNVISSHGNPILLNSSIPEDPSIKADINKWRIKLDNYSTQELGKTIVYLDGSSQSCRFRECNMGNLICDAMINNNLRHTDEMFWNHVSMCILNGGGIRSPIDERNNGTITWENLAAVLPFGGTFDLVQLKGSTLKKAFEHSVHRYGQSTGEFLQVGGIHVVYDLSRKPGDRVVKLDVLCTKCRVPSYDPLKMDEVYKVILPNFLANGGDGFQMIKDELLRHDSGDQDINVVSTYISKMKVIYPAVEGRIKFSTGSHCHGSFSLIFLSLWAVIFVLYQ

Row | Structure (SMILES) | pIC50
1 | N#Cc1cccc(CC(OC[C@H]2O[C@@H](n3cnc4c(N)nc(N=[N+]=[N-])nc43)[C@@H](F)[C@@H]2O)(C(=O)O)C(=O)O)c1 [compound 40, 2-(((2R,3R,4S,5R)-5-(6-amino-2-azido-9H-purin-9-yl)-4-fluoro-3-hydroxytetrahydrofuran-2-yl)methoxy)-2-(3-cyanobenzyl)malonic acid] | 5.62
2 | Nc1nc(Cl)nc2c1ncn2[C@@H]1O[C@H](COC(Cc2cc(C(=O)O)no2)(C(=O)O)C(=O)O)[C@@H](O)[C@@H]1F [compound 83, 2-(((2R,3R,4S,5R)-5-(6-amino-2-chloro-9H-purin-9-yl)-4-fluoro-3-hydroxytetrahydrofuran-2-yl)methoxy)-2-((3-carboxyisoxazol-5-yl)methyl)malonic acid] | 5.28
3 | COC(=O)C(Cc1ccc(-c2ccccc2)cc1)(OC[C@H]1O[C@@H](n2cnc3c(N)nc(Cl)nc32)[C@@H](F)[C@@H]1O)C(=O)O (single isomer, unassigned) [compound 81] | 5.68
4 | CNC(=O)C(OC[C@H]1O[C@@H](n2cnc3c(N)nc(Cl)nc32)[C@@H](F)[C@@H]1O)P(=O)(O)O (stereo partly drawn) [compound 29, (1-(((2R,3R,4S,5R)-5-(6-amino-2-chloro-9H-purin-9-yl)-4-fluoro-3-hydroxytetrahydrofuran-2-yl)methoxy)-2-(methylamino)-2-oxoethyl)phosphonic acid] | 5.24
5 | Nc1nc(Cl)nc2c1ncn2[C@@H]1O[C@H](COC(Cc2csc(C(=O)O)c2)(C(=O)O)C(=O)O)[C@@H](O)[C@@H]1F [compound 76, 2-(((2R,3R,4S,5R)-5-(6-amino-2-chloro-9H-purin-9-yl)-4-fluoro-3-hydroxytetrahydro-furan-2-yl)methoxy)-2-((5-carboxythiophen-3-yl)methyl)malonic acid] | 6.52
6 | Nc1nc(Cl)nc2c1ncn2[C@@H]1O[C@H](COC(Cc2ccc(OC(F)(F)F)cc2)(C(=O)O)C(=O)O)[C@@H](O)[C@@H]1F [compound 36] | 6.71
7 | Nc1nc(Cl)nc2c1ncn2[C@@H]1O[C@H](COC(CC(=O)O)(C(=O)O)C(=O)O)[C@@H](O)[C@@H]1F [compound 19, 1-(((2R,3R,4S,5R)-5-(6-amino-2-chloro-9H-purin-9-yl)-4-fluoro-3-hydroxytetrahydrofuran-2-yl)methoxy)ethane-1,1,2-tricarboxylic acid] | 5.23
8 | Nc1nc(Cl)nc2c1ncn2[C@@H]1O[C@H](COC(Cc2csc(C(=O)O)n2)(C(=O)O)C(=O)O)[C@@H](O)[C@@H]1F [compound 68, 2-(((2R,3R,4S,5R)-5-(6-amino-2-chloro-9H-purin-9-yl)-4-fluoro-3-hydroxytetrahydro-furan-2-yl)methoxy)-2-((2-carboxythiazol-4-yl)methyl)malonic acid] | 6.03
9 | Nc1nc(Cl)nc2c1ncn2[C@@H]1O[C@H](COC(Cc2ccc(C(=O)O)s2)(C(=O)O)C(=O)O)[C@@H](O)[C@@H]1F [compound 77, 2-(((2R,3R,4S,5R)-5-(6-amino-2-chloro-9H-purin-9-yl)-4-fluoro-3-hydroxytetrahydro-furan-2-yl)methoxy)-2-((5-carboxythiophen-2-yl)methyl)malonic acid] | 5.88
10 | Nc1nc(Cl)nc2c1ncn2[C@@H]1O[C@H](COC(Cc2ccc(C(F)(F)F)o2)(C(=O)O)C(=O)O)[C@@H](O)[C@@H]1F [compound 59, 2-(((2R,3R,4S,5R)-5-(6-amino-2-chloro-9H-purin-9-yl)-4-fluoro-3-hydroxytetrahydro-furan-2-yl)methoxy)-2-((5-(trifluoromethyl)-furan-2-yl)methyl)malonic acid] | 5.16
11 | Nc1nc(Cl)nc2c1ncn2[C@@H]1O[C@H](COC(CCCCO)(C(=O)O)C(=O)O)[C@@H](O)[C@@H]1F [compound 18, 2-(((2R,3R,4S,5R)-5-(6-amino-2-chloro-9H-purin-9-yl)-4-fluoro-3-hydroxytetrahydrofuran-2-yl)methoxy)-2-(4-hydroxybutyl)malonic acid] | 5.20

Now from value to compound:

Row | pIC50 | Structure (SMILES)
12 | 5.70 | Nc1nc(Cl)nc2c1ncn2[C@@H]1O[C@H](COC(Cc2cnn(Cc3ccccc3)c2)(C(=O)O)C(=O)O)[C@@H](O)[C@@H]1F [compound 63, 2-(((2R,3R,4S,5R)-5-(6-amino-2-chloro-9H-purin-9-yl)-4-fluoro-3-hydroxytetrahydro-furan-2-yl)methoxy)-2-((1-benzyl-1H-pyrazol-4-yl)methyl)malonic acid]
13 | 5.16 | Nc1nc(Cl)nc2c1ncn2[C@@H]1O[C@H](COC(Cc2cc(-c3ccccc3)no2)(C(=O)O)C(=O)O)[C@@H](O)[C@@H]1F [compound 61, 2-(((2R,3R,4S,5R)-5-(6-amino-2-chloro-9H-purin-9-yl)-4-fluoro-3-hydroxytetrahydrofuran-2-yl)methoxy)-2-((3-phenylisoxazol-5-yl)methyl)malonic acid]
14 | 5.59 | Nc1nc(Cl)nc2c1ncn2[C@@H]1O[C@H](COC(Cc2cccc(-c3nnn[nH]3)c2)(C(=O)O)C(=O)O)[C@@H](O)[C@@H]1F [compound 53, 2-(3-(1H-tetrazol-5-yl)benzyl)-2-(((2R,3R,4S,5R)-5-(6-amino-2-chloro-9H-purin-9-yl)-4-fluoro-3-hydroxytetrahydrofuran-2-yl)methoxy)malonic acid]
15 | 6.31 | Nc1nc(Cl)nc2c1ncn2[C@@H]1O[C@H](COC(Cc2ccc(CO)cc2)(C(=O)O)C(=O)O)[C@@H](O)[C@@H]1F [compound 39]
16 | 5.36 | Nc1nc(Cl)nc2c1ncn2[C@@H]1O[C@H](COC(Cc2ccccc2)(C(=O)O)C(=O)O)[C@@H](N)[C@H]1O [compound 51, 2-(((2S,3S,4R,5R)-3-amino-5-(6-amino-2-chloro-9H-purin-9-yl)-4-hydroxytetrahydrofuran-2-yl)methoxy)-2-benzylmalonic acid]
17 | 6.32 | Nc1nc(Cl)nc2c1ncn2[C@@H]1O[C@H](COC(Cc2ccsc2)(C(=O)O)C(=O)O)[C@@H](O)[C@@H]1F [compound 23]
18 | 6.37 | Nc1nc(Cl)nc2c1ncn2[C@@H]1O[C@H](COC(Cc2ccc(O)cc2)(C(=O)O)C(=O)O)[C@@H](O)[C@@H]1F [compound 66, 2-(((2R,3R,4S,5R)-5-(6-amino-2-chloro-9H-purin-9-yl)-4-fluoro-3-hydroxytetrahydrofuran-2-yl)methoxy)-2-(4-hydroxybenzyl)malonic acid]
19 | 6.71 | Nc1nc(Cl)nc2c1ncn2[C@@H]1O[C@H](COC(Cc2ccc(OCc3ccccc3)cc2)(C(=O)O)C(=O)O)[C@@H](O)[C@@H]1F [compound 65, 2-(((2R,3R,4S,5R)-5-(6-amino-2-chloro-9H-purin-9-yl)-4-fluoro-3-hydroxytetrahydrofuran-2-yl)methoxy)-2-(4-(benzyloxy)benzyl)malonic acid]
20 | 6.69 | Nc1nc(Cl)nc2c1ncn2[C@@H]1O[C@H](COC(Cc2ccc(OCC(=O)O)cc2)(C(=O)O)C(=O)O)[C@@H](O)[C@@H]1F [compound 92, 2-(((2R,3R,4S,5R)-5-(6-amino-2-chloro-9H-purin-9-yl)-4-fluoro-3-hydroxytetrahydrofuran-2-yl)methoxy)-2-(4-(carboxymethoxy)benzyl)malonic acid]
21 | 5.86 | COc1ccc(CC(OC[C@H]2O[C@@H](n3cnc4c(N)nc(Cl)nc43)[C@@H](F)[C@@H]2O)(C(=O)O)C(=O)O)cc1Cl [compound 85, 2-(((2R,3R,4S,5R)-5-(6-amino-2-chloro-9H-purin-9-yl)-4-fluoro-3-hydroxytetrahydrofuran-2-yl)methoxy)-2-(3-chloro-4-methoxybenzyl)malonic acid]

Source: patent US10472364B2 (Calithera Biosciences, Inc., priority 2016, dated 2019)
